How the values were obtained:
[1] = Liver microsomes stability assay; type: in vitro ADME, mouse; conditions: both sexes, CD-1, pH 7.4; for CLint scaled at 9.8 μM: intrinsic clearance calculated from in vitro t1/2, mouse liver microsomes; for half-life at 9.8 μM: mouse liver microsomes, read-out: Mouse Metabolic Stability t1/2 (converted)
Procedure: The microsomal stability assay was carried out as described. […] Each test compound (2.2 μL of 10 mM DMSO solution) was added directly to 1.79 mL of mouse liver microsomal solution and 90 μL was transferred to wells in 96-well plates (0, 0.25, 0.5, 1, 2, and 4 h time points each in triplicate). The NADPH regenerating agent was prepared by mixing 0.113 mL of NADPH regenerating agent solutions A, 0.023 mL of solution B and 0.315 mL of 0.1 M potassium phosphate buffer (pH 7.4) for each tested compound. To each well of the 96-well plate, 22.5 μL of the NADPH regenerating agent was added to initiate the reaction, and the plate was incubated at 37°C for each time point (0, 0.25, 0.5, 1, 2, and 4 h time points each in triplicate). The reaction was quenched by adding 225 μL of cold acetonitrile containing warfarin (4 μg/mL) as internal control to each well. All of the plates were centrifuged at 3220 g for 20 min and the supernatants (100 μL) were transferred to another 96-well plate for analysis on UPLC—MS (Waters Acquity UPLC linked to Waters Acquity Photodiode Array Detector and Waters Acquity Single Quadrupole Mass Detector) on an Acquity UPLC BEH C18 1.7 μm (2.1x50 mm) column by running 90–5% gradient for water (0.1% formic acid) and acetonitrile (0.1% formic acid) in 2 minutes. The area under the single ion recording (SIR) channel for the test compound divided by the area under the SIR for internal control at 0 time concentration was considered as 100% to calculate remaining concentration at each time point. The terminal phase rate constant (ke) was estimated by linear regression of logarithmic transformed concentration versus time, where ke = slope x(-ln10). The half-life t1/2 was calculated as ln2/ke.

[2] = Parallel artificial membrane permeability assay (PAMPA); conditions: for Permeation: pH 7.4; for Retention: retention in artificial membrane
Procedure: A parallel artificial membrane permeability assay (PAMPA) was conducted on a Biomek FX lab automation workstation (Beckman Coulter, Inc.) with PAMPA evolution 96 command software (pION Inc.) as follows: 3 μL of 10 mM test compound stock was mixed with 600 μL of PBS (pH 7.4) to make diluted test compound. Then 150 μL of diluted test compound was transferred to a UV plate (pION Inc.), and the UV spectrum was read as the reference plate. The membrane on a preloaded PAMPA sandwich (pION Inc.) was painted with 4 μL of GIT lipid (pION Inc.). The acceptor chamber was then filled with 200 μL of acceptor solution buffer (pION Inc.), and the donor chamber was filled with 180 μL of diluted test compound. The PAMPA sandwich was assembled, placed on the Gut-Box controlled environment chamber and stirred for 30 min. The aqueous boundary layer was set to 40 μm for stirring. The UV spectrum (250–500 nm) of the donor and the acceptor were read. The permeability coefficient was calculated using PAMPA Evolution 96 Command software (pION Inc.) based on the AUC of the reference plate, the donor plate, and the acceptor plate. All compounds were tested in triplicate.

[3] = system: P. falciparum strain 3D7 intraerythrocytic forms; set-up: method as in PubChem web site, http://pubchem.ncbi.nlm.nih.gov/; conditions: reported values; ref PubChem web site, http://pubchem.ncbi.nlm.nih.gov/; read-out: EC50 3D7 In vitro; cited from earlier work

| Compound | CLint scaled at 9.8 μM [1] | half-life at 9.8 μM [1] | Permeation [2] | Retention [2] | EC50 [3] |
| --- | --- | --- | --- | --- | --- |
| CC1CCCCN1S(=O)(=O)c1ccc2nc(Nc3ccc(C#N)cc3)ccc2c1 (centres unmarked) [Compound 12] | 178 mL/min/kg | 19.2 min | 570 ND 10^-6 cm/s | 93 ± 3.8% |  |
| CC1CCCCN1S(=O)(=O)c1ccc2nc(Nc3ccccc3)ccc2c1 (centres unmarked) [Compound 10] | 438 mL/min/kg | 7.8 min | 534 ± 25 10^-6 cm/s | 80 ± 12% |  |
| COc1cc(Nc2ccc3cc(S(=O)(=O)N4CCCCC4C)ccc3n2)cc(OC)c1OC (centres unmarked) [Compound 1] | 213 mL/min/kg | 16.2 min | 1057 ± 69 10^-6 cm/s | 70 ± 2.0% | 1240 nM |
| CC1CCCCN1S(=O)(=O)c1ccc2nc(Nc3cccc(C#N)c3)ccc2c1 (centres unmarked) [Compound 13] | 680 mL/min/kg | 4.8 min | 582 ± 205 10^-6 cm/s | 93 ± 0.5% |  |

— PMC4404333, “Identification of Selective Inhibitors of the Plasmodium falciparum Hexose Transporter PfHT by Screening Focused Libraries of Anti-Malarial Compounds” (PLoS ONE, 2015)
